Results on one molecule are retold here after patent US20220089663A1, “PROTEINS AND FLUOROPHORE-CONTAINING COMPOUNDS SELECTIVE FOR NaV1.7” (MEMORIAL SLOAN KETTERING CANCER CENTER, priority 2019, published 2022).

One test has as its target T1, hNav1.1 (Homo sapiens, UniProt P35498).
T1 construct: host or cells: HEK293
Nature of the test: automated whole-cell patch clamp (QPatch 16X), HEK293-hNav1.1. It is filed as cell-based. On the technique in general: In patch-clamp work, channel activity is measured electrically.

The test system of a further test is CVH mice. The test is described as follows: visceromotor response (VMR) to colorectal distension in chronic visceral hypersensitivity (CVH) mice. It is filed as in vivo, mouse. The settings on record: intra-colonic 200 nM. The procedure:
Model of Chronic Visceral Hypersensitivity (CVH). All experiments were performed in accordance with the guidelines of the Animal Ethics Committees of the South Australian Health and Medical Research Institute (SAHMRI) and Flinders University. Male C57 BL/6 mice were used in all experiments.
Colitis was induced by administration of Trinitrobenzene Sulphonic acid (TNBS) as described previously (Castro et al., Gut 66(6):1083-1094 (2017); Osteen et al., Nature 534: 494-499 (2016)). Briefly, 13-week-old mice were fasted overnight with access to 5% glucose solution. After the fasting period, isofluorane anaesthetized mice were administered an intracolonic enema of 0.1 mL TNBS ([…] in 30% EtOH) via a polyethylene catheter inserted 3 cm past the anus. […]
In vivo Visceromotor Responses (VMR) to Colorectal Distension (CRD). […] The EMG electrodes were relayed to a data acquisition system and the signal was recorded (NL100AK headstage), amplified (NL104), filtered (NL 125/126, Neurolog, Digitimer Ltd, bandpass 50-5000 Hz) and digitized (CED 1401, Cambridge Electronic Design, Cambridge, UK) to a PC for off-line analysis using Spike2 (Cambridge Electronic Design). […] To quantify the magnitude of the VMR at each distension pressure, the area under the curve (AUC) during the distension (20 s) was corrected for the baseline activity (AUC pre-distension, 20 s).

A further test deals with T2, hNav1.3 (Homo sapiens, UniProt Q9NY46).
T2 construct: host or cells: HEK293
Nature of the test: automated whole-cell patch clamp (QPatch 16X), HEK293-hNav1.3. It is filed as cell-based.

Some results are limits rather than exact numbers.

T2 sequence (Q07699 19-218): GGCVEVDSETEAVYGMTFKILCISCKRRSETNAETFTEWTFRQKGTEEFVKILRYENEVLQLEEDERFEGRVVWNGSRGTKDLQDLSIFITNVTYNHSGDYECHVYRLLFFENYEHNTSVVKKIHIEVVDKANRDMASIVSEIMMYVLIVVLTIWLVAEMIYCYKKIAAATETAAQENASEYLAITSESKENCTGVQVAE
T2 sequence (Q9NY46 whole entry): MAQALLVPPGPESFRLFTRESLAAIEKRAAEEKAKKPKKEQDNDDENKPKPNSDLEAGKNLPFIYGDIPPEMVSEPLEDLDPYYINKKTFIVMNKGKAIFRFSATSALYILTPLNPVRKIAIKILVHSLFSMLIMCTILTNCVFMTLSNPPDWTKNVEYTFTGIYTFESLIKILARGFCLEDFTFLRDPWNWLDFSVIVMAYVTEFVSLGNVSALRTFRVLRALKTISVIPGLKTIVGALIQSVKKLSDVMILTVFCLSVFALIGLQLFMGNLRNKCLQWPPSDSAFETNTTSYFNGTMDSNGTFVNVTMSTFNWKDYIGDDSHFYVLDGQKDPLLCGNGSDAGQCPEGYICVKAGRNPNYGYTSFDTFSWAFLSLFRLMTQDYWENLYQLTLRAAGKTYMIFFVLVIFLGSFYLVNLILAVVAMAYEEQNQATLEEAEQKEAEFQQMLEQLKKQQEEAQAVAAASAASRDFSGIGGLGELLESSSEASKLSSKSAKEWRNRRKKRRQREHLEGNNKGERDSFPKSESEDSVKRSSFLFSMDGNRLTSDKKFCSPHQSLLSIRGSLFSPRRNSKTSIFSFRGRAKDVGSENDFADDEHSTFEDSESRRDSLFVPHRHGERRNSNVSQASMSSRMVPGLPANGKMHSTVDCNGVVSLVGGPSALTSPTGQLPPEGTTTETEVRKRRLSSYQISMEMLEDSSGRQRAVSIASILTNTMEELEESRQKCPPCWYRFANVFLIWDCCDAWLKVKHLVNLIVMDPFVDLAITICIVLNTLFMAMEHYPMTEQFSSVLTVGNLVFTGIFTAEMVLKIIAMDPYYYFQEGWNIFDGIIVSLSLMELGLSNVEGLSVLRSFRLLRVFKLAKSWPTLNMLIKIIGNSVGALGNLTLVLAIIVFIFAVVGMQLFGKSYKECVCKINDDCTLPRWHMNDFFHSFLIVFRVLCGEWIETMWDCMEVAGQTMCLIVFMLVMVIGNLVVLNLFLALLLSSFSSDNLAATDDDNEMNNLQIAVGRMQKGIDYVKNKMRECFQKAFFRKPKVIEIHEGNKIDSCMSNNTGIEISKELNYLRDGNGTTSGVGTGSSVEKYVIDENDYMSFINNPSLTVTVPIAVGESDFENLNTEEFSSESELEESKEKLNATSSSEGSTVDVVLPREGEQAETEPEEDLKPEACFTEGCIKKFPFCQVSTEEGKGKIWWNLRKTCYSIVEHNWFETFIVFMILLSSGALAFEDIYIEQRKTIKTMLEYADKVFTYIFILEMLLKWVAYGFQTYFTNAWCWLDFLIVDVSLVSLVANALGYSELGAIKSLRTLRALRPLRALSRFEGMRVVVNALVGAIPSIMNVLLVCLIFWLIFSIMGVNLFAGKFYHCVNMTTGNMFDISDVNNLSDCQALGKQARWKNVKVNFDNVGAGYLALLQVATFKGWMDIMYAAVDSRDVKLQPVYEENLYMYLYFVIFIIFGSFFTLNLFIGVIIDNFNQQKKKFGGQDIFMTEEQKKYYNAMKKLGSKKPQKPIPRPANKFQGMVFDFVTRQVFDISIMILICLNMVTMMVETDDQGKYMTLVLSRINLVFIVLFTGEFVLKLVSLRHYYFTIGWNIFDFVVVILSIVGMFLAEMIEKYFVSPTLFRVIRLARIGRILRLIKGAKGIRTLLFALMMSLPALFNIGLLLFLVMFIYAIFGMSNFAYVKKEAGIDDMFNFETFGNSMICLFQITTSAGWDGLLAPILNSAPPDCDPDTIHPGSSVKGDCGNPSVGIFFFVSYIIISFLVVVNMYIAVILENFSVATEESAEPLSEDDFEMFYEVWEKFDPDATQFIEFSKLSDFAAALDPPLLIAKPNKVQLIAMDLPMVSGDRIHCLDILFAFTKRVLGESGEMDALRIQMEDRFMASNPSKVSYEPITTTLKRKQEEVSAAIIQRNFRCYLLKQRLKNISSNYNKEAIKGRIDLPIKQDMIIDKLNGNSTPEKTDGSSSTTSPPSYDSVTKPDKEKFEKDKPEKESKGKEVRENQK

In turn, `CC[C@H](C)[C@H](NC(=O)[C@H](CCCCN)NC(=O)[C@@H]1CSSC[C@@H]2NC(=O)[C@@H]3CCCN3C(=O)[C@H](CCCNC(=N)N)NC(=O)[C@H](CCC(=O)O)NC(=O)[C@H](CO)NC(=O)[C@H](CC(=O)O)NC(=O)[C@@H]3CSSC[C@H](NC(=O)[C@H](C(C)C)NC(=O)[C@H](CC(C)C)NC(=O)CNC(=O)[C@H](CCC(=O)O)NC(=O)[C@H](CSSC[C@H](NC(=O)[C@@H](N)Cc4ccc(O)cc4)C(=O)N[C@@H](CCC(N)=O)C(=O)N[C@@H](CCCCN)C(=O)N[C@@H](Cc4ccccc4)C(=O)N[C@@H](CC(C)C)C(=O)N[C@@H](Cc4c[nH]c5ccccc45)C(=O)N[C@@H]([C@@H](C)O)C(=O)N3)NC2=O)C(=O)N[C@@H](CCCNC(=N)N)C(=O)N[C@@H](CC(C)C)C(=O)N[C@@H](Cc2c[nH]c3ccccc23)C(=O)N1)C(=O)N[C@@H](CC(N)=O)C(N)=O` [sHsp1a] gave a hNav1.1 currents blocked on hNav1.1 (at 200 nM) of 30%. Moreover, the inhibition (in general, how much of the control response was suppressed) at 2 µM at hNav1.1 (at 2 μM, read-out: current inhibition hNav1.1) is 75%; at hNav1.3 (at 2 μM, read-out: max. current inhibition hNav1.3), under 50%. Moreover, the IC50 was 407 nM at hNav1.1 (mean±S.E.M, read-out: pIC50 on hNav1.1 (converted)) and over 1000 nM on hNav1.3 (read-out: pIC50 on hNav1.3 (converted)). Further, the “VMR to colorectal distension compared to CVH vehicle treated animals” value in the test with CVH mice is “significantly reduced the VMR”. Further, the “inhibition of hNav1.3 currents” value against hNav1.3 (at 200 nM) is “did not show any significant inhibition”.
